{
  "source": "paper PMC7946438",
  "about": "(The Journal of Biological Chemistry, 2021)",
  "key": {"Abl Y253F [1]": {"target": "T1, Abl Y253F (Homo sapiens, UniProt P00519, Y253F)", "T1 sequence (P00519 229-512 Y253F limits assumed)": "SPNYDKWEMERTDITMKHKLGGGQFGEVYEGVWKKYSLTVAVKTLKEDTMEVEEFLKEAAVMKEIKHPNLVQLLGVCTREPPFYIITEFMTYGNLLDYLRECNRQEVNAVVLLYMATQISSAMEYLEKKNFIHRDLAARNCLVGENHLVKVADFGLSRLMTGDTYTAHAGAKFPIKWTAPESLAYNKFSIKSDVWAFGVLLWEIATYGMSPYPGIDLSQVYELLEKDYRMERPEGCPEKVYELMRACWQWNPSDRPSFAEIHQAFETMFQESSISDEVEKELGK", "test": "Stop-flow tryptophan fluorescence binding kinetics, Abl Y253F"}, "Src [2]": {"target": "T2, Src (Homo sapiens, UniProt P12931)", "test": "biochemical"}, "[3]": {"test_system": "Bcl-2, Cytochrome C, caspase 3, Bid", "test": "Western blot analysis of apoptosis markers", "type": "cell-based", "conditions": "MDA-MB-231, 10 and 20 μM, 12 h"}, "Src, ERK1/2, and STAT3": {"test_system": "Src, ERK1/2, and STAT3", "test": "Phosphorylation of Src, ERK1/2 and STAT3 in macrophages, immunoprecipitation", "type": "cell-based, murine", "conditions": "RAW 264.7, LPS activated"}, "Src [4]": {"target": "T2, Src", "type": "biochemical"}, "Src kinase domain": {"target": "Src kinase domain (Homo sapiens, UniProt P12931)", "sequence (P12931 254-535 limits assumed)": "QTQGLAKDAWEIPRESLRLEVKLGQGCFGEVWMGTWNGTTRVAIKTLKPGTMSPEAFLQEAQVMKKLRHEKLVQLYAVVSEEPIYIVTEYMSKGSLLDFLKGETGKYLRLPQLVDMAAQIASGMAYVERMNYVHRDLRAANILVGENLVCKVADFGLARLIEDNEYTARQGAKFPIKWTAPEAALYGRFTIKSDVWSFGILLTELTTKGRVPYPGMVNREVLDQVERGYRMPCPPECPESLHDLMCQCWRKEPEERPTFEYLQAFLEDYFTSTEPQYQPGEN"}, "HEK 293T": {"test_system": "HEK 293T", "test": "Cytotoxicity by MTT assay, HEK 293T", "type": "cell-based", "conditions": "Homo sapiens, 48 h, read-out: IC50 value HEK 293T"}, "ERK1/2": {"test_system": "ERK1/2", "test": "ERK1/2 nuclear translocation, immunofluorescence", "type": "cell-based", "conditions": "MDA-MB-231, 5 μM of 4"}, "RAW 264.7 cells": {"test_system": "RAW 264.7 cells", "test": "Intracellular calcium detection", "type": "cell-based, murine", "conditions": "RAW 264.7, 5 μM of 4"}, "Hck [5]": {"target": "T3, Hck (Homo sapiens, UniProt P08631)", "test": "biochemical", "type": "binding"}, "Hck [6]": {"target": "T3, Hck", "test": "biochemical", "type": "biochemical"}, "pY-Src": {"target": "pY-Src (Homo sapiens, UniProt P12931)", "sequence (P12931 254-535)": "as the sequence (P12931 254-535 limits assumed) above", "test": "Coupled kinase assay, phosphorylated Src", "type": "biochemical", "conditions": "5 μM of 4"}, "STAT3": {"test_system": "STAT3", "test": "STAT3 nuclear translocation, immunofluorescence", "type": "cell-based, murine", "conditions": "RAW 264.7, 5 μM of 4"}, "MDA-MB-231 cells [7]": {"test_system": "MDA-MB-231 cells", "test": "Stability of the compound in cells by live-cell fluorescence imaging", "type": "in vitro ADME", "conditions": "MDA-MB-231, 10 μM"}, "Solution stability": {"test": "Solution stability", "type": "physicochemical"}, "Hck [8]": {"target": "T3, Hck", "type": "biochemical"}, "pUC19 plasmid DNA": {"test_system": "pUC19 plasmid DNA", "test": "DNA cross-linking assay", "conditions": "0.1–20 μM, 37 °C, 2 h"}, "MDA-MB-231": {"test_system": "MDA-MB-231", "test": "Cytotoxicity by MTT assay, MDA-MB-231", "type": "cell-based", "conditions": "for IC50: Homo sapiens, MDA-MB-231, read-out: IC50 dose; for IC10 dose: MDA-MB-231, value used as dose in wound-healing assay"}, "MDA-MB-231 cells [9]": {"test_system": "MDA-MB-231 cells", "test": "Plasma membrane integrity, FM4-64-FX live-cell imaging", "type": "cell-based", "conditions": "15 μM, 6 h"}, "Src [10]": {"target": "T2, Src", "conditions": "MDA-MB-231"}, "Abl Y253F [11]": {"target": "T1, Abl Y253F", "test": "Kinase activity of Abl Y253F mutant", "type": "biochemical", "conditions": "10 μM"}, "DYRK2 [12]": {"target": "T4, DYRK2 (Homo sapiens, UniProt Q92630)", "T4 sequence (Q92630 146-540)": "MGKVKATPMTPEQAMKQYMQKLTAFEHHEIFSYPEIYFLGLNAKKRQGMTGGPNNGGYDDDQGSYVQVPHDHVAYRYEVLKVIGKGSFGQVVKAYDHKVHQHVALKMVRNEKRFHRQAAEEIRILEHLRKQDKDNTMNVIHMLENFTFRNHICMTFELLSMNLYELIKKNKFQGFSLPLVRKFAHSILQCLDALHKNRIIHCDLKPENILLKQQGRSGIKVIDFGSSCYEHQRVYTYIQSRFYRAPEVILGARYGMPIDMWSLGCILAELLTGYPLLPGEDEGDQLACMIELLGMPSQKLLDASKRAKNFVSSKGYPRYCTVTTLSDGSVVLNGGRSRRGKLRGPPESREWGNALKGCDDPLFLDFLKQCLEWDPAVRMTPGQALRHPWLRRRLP", "test": "Stop-flow tryptophan fluorescence binding kinetics, DYRK2", "conditions": "tryptophan fluorescence transient"}, "pY-Hck": {"target": "pY-Hck (Homo sapiens, UniProt P08631)", "sequence (P08631 166-445)": "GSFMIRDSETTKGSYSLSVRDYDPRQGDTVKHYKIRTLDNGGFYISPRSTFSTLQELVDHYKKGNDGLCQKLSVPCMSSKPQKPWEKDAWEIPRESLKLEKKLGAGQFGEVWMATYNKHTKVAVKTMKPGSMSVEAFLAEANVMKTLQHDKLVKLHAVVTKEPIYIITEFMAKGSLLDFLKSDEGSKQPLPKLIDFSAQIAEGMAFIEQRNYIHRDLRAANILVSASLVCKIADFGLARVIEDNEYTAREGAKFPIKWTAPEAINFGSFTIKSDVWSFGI", "test": "Coupled kinase assay, phosphorylated Hck", "type": "biochemical", "conditions": "5 μM of 4"}, "MDA-MB-231 cells [13]": {"test_system": "MDA-MB-231 cells", "test": "Wound-healing assay", "type": "cell-based", "conditions": "IC10 and IC50 dose"}, "[14]": {"test": "Aggregation by dynamic light scattering", "type": "physicochemical", "conditions": "15 μM in aqueous assay buffer"}, "DYRK2 [15]": {"target": "T4, DYRK2", "test": "Coupled kinase assay, DYRK2", "type": "biochemical"}},
  "data": [
    {"smiles": "COc1cc(/C=C/C(=O)C(=Cc2ccc(N(CCCl)CCCl)cc2)C(=O)/C=C/c2ccc(O)c(OC)c2)ccc1O", "note": "[Compound 4, (1E,6E)-4-(4-(bis(2-chloroethyl)amino)benzylidene)-1,7-bis(4-hydroxy-3-methoxyphenyl)hepta-1,6-diene-3,5-dione]", "values": [
      {"measurement": "Kd", "setting": "Abl Y253F [1]", "value": "1300 ± 300", "unit": "nM"},
      {"measurement": "Ki", "setting": "Src [2]", "value": "460 ± 110", "unit": "nM"},
      {"measurement": "BH3 interacting domain death agonist expression level", "setting": "[3]", "value": "does not affect"},
      {"measurement": "Mitochondria-mediated apoptotic pathway (Bcl-2, cytochrome C, Caspase3)", "setting": "[3]", "value": "activates the mitochondria-mediated apoptotic pathway"},
      {"measurement": "Phosphorylation of Src, ERK1/2, and STAT3", "setting": "Src, ERK1/2, and STAT3", "value": "concentration-dependent reduced phosphorylation"},
      {"measurement": "Reduction of the rate of autophosphorylation", "setting": "Src [4]", "value": 2.5, "unit": "fold"},
      {"measurement": "Covalent modification of cysteine residues of Src kinase", "setting": "Src kinase domain", "value": "not covalently modifying"},
      {"measurement": "IC50", "setting": "HEK 293T", "value": "24900 ± 1000", "unit": "nM"},
      {"measurement": "Cytosolic fraction of ERK1/2 after TNF-α activation", "setting": "ERK1/2", "value": "significantly increased"},
      {"measurement": "Ca^2+ release after LPS activation", "setting": "RAW 264.7 cells", "value": "significant reduction"},
      {"measurement": "Kd", "setting": "Hck [5]", "value": "50 ± 10", "unit": "nM"},
      {"measurement": "Ki", "setting": "Hck [6]", "value": "70 ± 11", "unit": "nM"},
      {"measurement": "Mode of inhibition", "setting": "Hck [6]; Km for ATP changes, Vmax unchanged", "value": "competitive inhibitor for the ATP-binding site"},
      {"measurement": "Inhibition of phosphorylated Src (pY-Src)", "setting": "pY-Src", "value": "does not inhibit"},
      {"measurement": "Cytosolic fraction of STAT3 after LPS activation", "setting": "STAT3", "value": "increased cytosolic fraction of STAT3"},
      {"measurement": "Time for which fluorescence was observed inside the cell", "setting": "MDA-MB-231 cells [7]; observed for 14 h", "value": 14, "unit": "h"},
      {"measurement": "Time stable in solution by 1H NMR", "setting": "Solution stability; 8:2 v/v of 1x PBS and DMSO-d6, 24 h observed period", "value": "at least 24 h"},
      {"measurement": "Stability in the kinase assay buffer", "setting": "Solution stability; kinase assay buffer pH 8.0, 5% DMSO, 1 h", "value": "most stable"},
      {"measurement": "Reduction of the rate of autophosphorylation", "setting": "Hck [8]", "value": 500, "unit": "fold"},
      {"measurement": "DNA cross-linking", "setting": "pUC19 plasmid DNA", "value": "do not cross-link DNA"},
      {"measurement": "IC50", "setting": "MDA-MB-231", "value": 1300, "unit": "nM"},
      {"measurement": "IC10 dose", "setting": "MDA-MB-231", "value": 100, "unit": "nM"},
      {"measurement": "Effect on plasma membrane integrity", "setting": "MDA-MB-231 cells [9]", "value": "not affecting the membrane integrity"},
      {"measurement": "Autophosphorylation of Src in the cell", "setting": "Src [10]", "value": "inhibits the autophosphorylation of Src"},
      {"measurement": "Inhibition of Abl Y253F kinase activity", "setting": "Abl Y253F [11]", "value": "better inhibition compared with imatinib"},
      {"measurement": "Interaction with DYRK2", "setting": "DYRK2 [12]", "value": "did not interact"},
      {"measurement": "Inhibition of phosphorylated Hck (pY-Hck)", "setting": "pY-Hck", "value": "does not inhibit"},
      {"measurement": "Effect on wound-healing rates", "setting": "MDA-MB-231 cells [13]", "value": "significantly impaired the wound-healing rates"},
      {"measurement": "Aggregation in solution (oligomeric state, DLS)", "setting": "[14]", "value": "did not aggregate"}
    ]},
    {"smiles": "COc1cc(/C=C/C(=O)CC(=O)/C=C/c2ccc(O)c(OC)c2)ccc1O", "note": "[Compound 1, Curcumin, reference compound]", "values": [
      {"measurement": "Ki", "setting": "DYRK2 [15]", "value": 6, "unit": "nM"},
      {"measurement": "Time to degradation inside the cell", "setting": "MDA-MB-231 cells [7]; fluorescence", "value": "≤ 1", "unit": "h"},
      {"measurement": "IC50", "setting": "MDA-MB-231", "value": 13000, "unit": "nM"},
      {"measurement": "IC10 dose", "setting": "MDA-MB-231", "value": 600, "unit": "nM"}
    ]}
  ]
}
